According to patent US8513181B2, “Substances and compositions for enhancing DNA repair and methods of use” (Cornell University, priority 2008, dated 2013):

What was measured:
mouse CUL4B = assay: Western blotting of MEF extracts after lentiviral shRNA infection (knockdown efficiency); type: cell-based; details: early passage (P3) primary MEFs, harvested 48 hours post-infection
Source text: (§1) Short hairpin (sh) RNAs for gene targeting were as follows: murine sh-Cul4b was 5′-[…]-3′ (SEQ ID NO: 9); murine sh-Pcid2-1 was 5′-[…]-3′ (SEQ ID NO: 10); murine sh-Pcid2-2 was 5′-[…]-3′ (SEQ ID NO: 11); murine sh-p21 was 5′-[…]-3′ (SEQ ID NO: 12); scrambled sh-Cul4b was 5′-[…]-3′ (SEQ ID NO: 13); and human sh-Cul4a was 5′-GAAGCTGGTCATCAAGAAC-3′ (SEQ ID NO: 14). shRNAs were subcloned into the FUGW lentiviral vector and expressed under the U6 promoter (Sui and Shi, Methods Mol. Biol., 309: 205-218 (2005)). Recombinant lentiviruses were generated for infection of MEFs or HCT116 cells.
(§2) MEFs were isolated from embryonic day (E) 13.5 wild-type or Cul4a knockout embryos. shRNAs for murine Cul4b and Pcid2 as well as scrambled controls were subcloned into the FUGW lentiviral vector and expressed under the U6 promoter as described in Example 1. Recombinant shCul4b and shPcid2 lentiviruses were generated for infection of primary Cu/4a^f/f and Cul4a^−/− MEF cells. shRNA-containing FUGW lentivirus were added onto Cu/4a^f/f and Cul4a^−/− MEFs every 12 hours for 36 hours. The cells were harvested 48 hours post-infection, and Western blotting was performed on MEF extracts using antibodies against CUL4A (C-19, Santa Cruz Biotechnology), CUL-4B, DDB2 (Cell Signaling Technology, Danvers, Mass.), p21 (Santa Cruz Biotechnology), XPC, histone H3, and β-actin (Sigma, St. Louis, Mo.).

[1] = test system: primary Cul4a f/f and Cul4a−/− MEF cells; assay: Western blotting of DDB2, p21 and XPC steady-state protein levels in MEFs after lentiviral shRNA; type: cell-based, mouse; details: Western blot
Description: as §2

Cul4a−/− MEFs = assay: BrdU incorporation and cell viability of Cul4a−/− MEFs after Cul4b silencing; type: cell-based, mouse; details: silencing of Cul4b in Cul4a−/− MEFs
Source text: FIG. 3A is a bar graph depicting the percentage of control (f/f-4a) and Cul4a knockout (ko-4a) MEFs infected with a lentivirus encoding GFP and either short hairpin (sh)-4b or scrambled (scm)-4b, at the indicated time point, as determined by FACS. FIG. 3B is a bar graph depicting BrdU incorporation into the MEFs described in FIG. 3A, as determined by counting BrdU^+ cells in microscopic fields.
as §1

[2] = test system: UV-induced CPDs and 6-4PPs in primary MEFs; assay: GGR ELISA assay of CPD and 6-4PP removal in MEFs; type: cell-based, mouse
XPC in HCT116 cells = assay: XPC chromatin binding and ubiquitination after UV irradiation (immunoblot of chromatin-bound extracts); type: cell-based, human; details: HCT116, lentiviral shRNA 48 hours
Description: XPC ubiquitination was determined in HCT116 cells following UV irradiation. HCT116 cells were infected with lentiviral shCul4a or control FUGW for 48 hours, UV irradiated at 10 J/m^2 and harvested at 0 hr, 0.5 hr, 1 hr, and 2 hr post-UV. The chromatin-bound extracts were prepared and subjected to immunoblotting.

HCT116 cells = assay: CPD repair (NER activity) in UV-irradiated HCT116 cells infected with adenovirus; type: cell-based, human; details: HCT116, 10 J/m^2 UV-C, 0-24 hr
Description: The GGR ELISA assay of CPD and 6-4PP removal was performed as previously described (Chen et al., 2006) in primary Cul4a^−/− (ko-4-a scm-4b), Cu/4b^k/d (f/f-4a sh-4b), and control Cu/4a^f/f (f/f-4a scm-4-b) MEFs (FIG. 7B, ko, knockout; k/d, knockdown; scm, scramble). Briefly, exponentially growing MEF cells were irradiated with 10 J/m^2 UV-C (254 nm) and either harvested immediately (0 hr) or allowed to repair for the duration indicated in FIG. 7B. Genomic DNA was isolated and quantified via liquid scintillation and fluorometric measurements of Hoechst-stained DNA. Denatured genomic DNA was fixed to each well of protamine sulfate-coated 96-well plates and sequentially incubated with monoclonal antibody specific for 6-4PPs (64M-2, 1:5000) or CPDs (1:5000), biotin-F(ab′)2 fragment of anti-mouse IgG (H+L) (1:2000, Zymed) and peroxidase-Streptavidin (1:10,000, Zymed) for 30 min at 37° C. The wells were washed with PBS-Tween and 0.1 M citrate-phosphate buffer and incubated with the substrate solution (0.1 M citrate-phosphate buffer, 0.1 mg/mL tetramethylbenzidine [TMB], 0.03% H2O2) at room temperature for 30 min. […] A450 was determined using a plate reader (Molecular Devices).
HCT116 cells were infected with a control adenovirus or an adenovirus comprising a gene encoding a DN-CUL4 (SEQ ID NO: 18). […] The rate of NER activity was then calculated as the rate of CPD repair as a function of time.

shCul4b: murine short hairpin RNA targeting Cul4b, 5′-GTAGTAACGAGAGAGAAGACT-3′ (SEQ ID NO: 9), in FUGW lentiviral vector (listed as Mus musculus)
reduction of mouse CUL4B protein (mouse CUL4B): over 93%
effect on XPC accumulation ([1]; Cul4b knockdown): marginal effect
effect on p21 protein accumulation ([1]; Cul4b silencing by RNAi): little effect
effect on DDB2 levels ([1]; lentiviral shRNA): only a marginal effect
BrdU incorporation (Cul4a−/− MEFs): dramatic reduction
cell viability (Cul4a−/− MEFs): loss of cell viability
effect on GGR efficiency (CPD and 6-4PP removal) ([2]; Cul4b knockdown in Cul4a f/f MEFs, 10 J/m^2 UV-C): no discernable effect

sh-p21: murine short hairpin RNA targeting p21, 5′-GAGAACGGTGGAACTTTGACTT-3′ (SEQ ID NO: 12), lentiviral (expressed or natural sequence; listed as Mus musculus)
reduction of NER activity in CPD removal compared to Cul4a−/− MEFs ([2]; p21 knockdown (or p21 deletion) in Cul4a−/− MEFs, 10 J/m^2 UV, 24-hour repair assay): 8-11%

shCul4a: human short hairpin RNA targeting Cul4a, 5′-GAAGCTGGTCATCAAGAAC-3′ (SEQ ID NO: 14), in FUGW lentiviral vector (listed as Homo sapiens)
association of XPC with chromatin (XPC in HCT116 cells; UV 10 J/m^2): increased
XPC ubiquitination on chromatin post-UV (XPC in HCT116 cells; UV 10 J/m^2, 0-2 hr post-UV): dramatic inhibition

B1: DN-CUL4: dominant negative CUL4 fragment (SEQ ID NO: 18) expressed from an adenovirus (protein, listed as Homo sapiens)
chain: MADEAPRKGSFSALVGRTNGLTKPAALAAAPAKPGGAGGSKKLVIKNFRDRPRLPDNYTQDTWRKLHEAVRAVQSSTSIRYNLEELYQAVENLCSHKVSPMLYKQLRQACEDHVQAQILPFREDSLDSVLFLKKINTCWQDHCRQMIMIRSIFLFLDRTYVLQNSTLPSIWDMGLELFRTHIISDKMVQSKTIDGILLLIERERSGEAVDRSLLRSLLGMLSDLQVYKDSFELKFLEETNCLYAAEGQRLMQEREVPEYLNHVSKRLEEEGDRVITYLDHSTQKPLIACVEKQLL
modifications: DN-CUL4A (M1-L295)
CPD repair compared to control adenovirus cells (HCT116 cells): occurred earlier and was more complete
